Data reported in PubChem BioAssay AID1963849 (Molecular Pharmacology Branch, DTP, NCI, 2024).

Tested on: 299254-011-R-J1-PDC complex spheroid viability
Assay: Anticancer human tumor 299254-011-R-J1-PDC patient-derived melanoma cell line growth inhibition [POLQ]
Details: for IC50: curve of first compound; for viability, T/C: stronger effect = lower value; active = viability on the fitted dose curve at most 10% of control; inactive = the rest
Summary of the method: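 Complex spheroid viability model combining PDC tumour cells with endothelial (HUVEC) and MSC stromal cells. Novobiocin, ART-558 or RP6685 were tested singly and in combination with standard and investigational anticancer drugs. Each was titrated in half-log steps from near clinical Cmax, or from 10 microM where Cmax was unknown.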

[1] = second compound 0.0316 µM, first compound 0.0316 µM
[2] = second compound 0.0316 µM, first compound 0.1 µM
[3] = second compound 0.0316 µM, first compound 0.316 µM
[4] = second compound 0.0316 µM, first compound 1 µM
[5] = second compound 0.0316 µM, first compound 3.16 µM
[6] = second compound 0.0316 µM, first compound 10 µM
[7] = second compound 0.1 µM, first compound 0.0316 µM
[8] = second compound 0.1 µM, first compound 0.1 µM
[9] = second compound 0.1 µM, first compound 0.316 µM
[10] = second compound 0.1 µM, first compound 1 µM
[11] = second compound 0.1 µM, first compound 3.16 µM
[12] = second compound 0.1 µM, first compound 10 µM
[13] = second compound 0.316 µM, first compound 0.0316 µM
[14] = second compound 0.316 µM, first compound 0.1 µM
[15] = second compound 0.316 µM, first compound 0.316 µM
[16] = second compound 0.316 µM, first compound 1 µM
[17] = second compound 0.316 µM, first compound 3.16 µM
[18] = second compound 0.316 µM, first compound 10 µM
[19] = second compound 1 µM, first compound 0.0316 µM
[20] = second compound 1 µM, first compound 0.1 µM
[21] = second compound 1 µM, first compound 0.316 µM
[22] = second compound 1 µM, first compound 1 µM
[23] = second compound 1 µM, first compound 3.16 µM
[24] = second compound 1 µM, first compound 10 µM
[25] = second compound 3.16 µM, first compound 0.0316 µM
[26] = second compound 3.16 µM, first compound 0.1 µM
[27] = second compound 3.16 µM, first compound 0.316 µM
[28] = second compound 3.16 µM, first compound 1 µM
[29] = second compound 3.16 µM, first compound 3.16 µM
[30] = second compound 3.16 µM, first compound 10 µM
[31] = second compound 10 µM, first compound 0.0316 µM
[32] = second compound 10 µM, first compound 0.1 µM
[33] = second compound 10 µM, first compound 0.316 µM
[34] = second compound 10 µM, first compound 1 µM
[35] = second compound 10 µM, first compound 3.16 µM
[36] = second compound 10 µM, first compound 10 µM
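Note: spheroids exposed to drugs for one week before measurement.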
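Throughout, for viability, T/C: percent viability relative to DMSO vehicle control taken as 100%.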

COc1cccc2c1C(=O)c1c(O)c3c(c(O)c1C2=O)CC(O)(C(=O)CO)CC3OC1CC(N)C(O)C(C)O1 (stereo unspecified) + Cc1cccc(N(C)C(=O)C2C(O)CCN2c2nc(C)cc(C(F)(F)F)c2C#N)c1
565 nM: IC50 (second compound 0.0316 µM)
active: viability, T/C [6] 0.75% | viability, T/C [11] 11.7% | viability, T/C [12] 0.68% | viability, T/C [18] 1.03% | viability, T/C [24] 0.75% | viability, T/C [30] 0.51% | viability, T/C [35] 0.75% | viability, T/C [36] 0.31%
763 nM: IC50 (second compound 0.316 µM)
567 nM: IC50 (second compound 3.16 µM)
670 nM: IC50 (second compound 1 µM)
803 nM: IC50 (second compound 0.1 µM)
352 nM: IC50 (second compound 10 µM)
inactive: viability, T/C [1] 111% | viability, T/C [2] 77.3% | viability, T/C [3] 64.9% | viability, T/C [4] 44.1% | viability, T/C [5] 12.2% | viability, T/C [7] 83.7% | viability, T/C [8] 75.8% | viability, T/C [9] 77.4% | viability, T/C [10] 42.9% | viability, T/C [13] 97.7% | viability, T/C [14] 83.2% | viability, T/C [15] 75.2% | viability, T/C [16] 43.8% | viability, T/C [17] 11.4% | viability, T/C [19] 105% | viability, T/C [20] 89.8% | viability, T/C [21] 61.7% | viability, T/C [22] 48.6% | viability, T/C [23] 12% | viability, T/C [25] 100% | viability, T/C [26] 74.8% | viability, T/C [27] 68.8% | viability, T/C [28] 38.9% | viability, T/C [29] 8.88% | viability, T/C [31] 102% | viability, T/C [32] 74.6% | viability, T/C [33] 59.9% | viability, T/C [34] 19.8%

Nc1ccn(C2OC(CO)C(O)C2(F)F)c(=O)n1 (stereo unspecified) + Cc1cccc(N(C)C(=O)C2C(O)CCN2c2nc(C)cc(C(F)(F)F)c2C#N)c1
74.2 nM: IC50 (second compound 0.316 µM)
41.8 nM: IC50 (second compound 3.16 µM)
65.3 nM: IC50 (second compound 0.0316 µM)
inactive: viability, T/C [1] 66.5% | viability, T/C [2] 41.4% | viability, T/C [3] 31.7% | viability, T/C [4] 37.7% | viability, T/C [5] 40.8% | viability, T/C [6] 36.6% | viability, T/C [7] 66% | viability, T/C [8] 43.7% | viability, T/C [9] 46.8% | viability, T/C [10] 38% | viability, T/C [11] 42.8% | viability, T/C [12] 43.5% | viability, T/C [13] 70.5% | viability, T/C [14] 42.3% | viability, T/C [15] 41.2% | viability, T/C [16] 42% | viability, T/C [17] 35.2% | viability, T/C [18] 35.8% | viability, T/C [19] 76.9% | viability, T/C [20] 44.1% | viability, T/C [21] 33.5% | viability, T/C [22] 33.7% | viability, T/C [23] 49.9% | viability, T/C [24] 40.3% | viability, T/C [25] 59.1% | viability, T/C [26] 43% | viability, T/C [27] 37.1% | viability, T/C [28] 41.1% | viability, T/C [29] 42.5% | viability, T/C [30] 37.6% | viability, T/C [31] 72.8% | viability, T/C [32] 44.2% | viability, T/C [33] 34.1% | viability, T/C [34] 39.8% | viability, T/C [35] 32.9% | viability, T/C [36] 48.1%
73.7 nM: IC50 (second compound 0.1 µM)
76.4 nM: IC50 (second compound 10 µM)
78.7 nM: IC50 (second compound 1 µM)

O=c1[nH]cc(F)c(=O)[nH]1 + Cc1cccc(N(C)C(=O)C2C(O)CCN2c2nc(C)cc(C(F)(F)F)c2C#N)c1
> 10000 nM: IC50 (second compound 0.0316 µM) | IC50 (second compound 0.1 µM) | IC50 (second compound 0.316 µM) | IC50 (second compound 1 µM) | IC50 (second compound 3.16 µM) | IC50 (second compound 10 µM)
inactive: viability, T/C [1] 115% | viability, T/C [2] 88% | viability, T/C [3] 105% | viability, T/C [4] 97.3% | viability, T/C [5] 76.1% | viability, T/C [6] 73% | viability, T/C [7] 105% | viability, T/C [8] 92.4% | viability, T/C [9] 96% | viability, T/C [10] 94.8% | viability, T/C [11] 88.1% | viability, T/C [12] 81.2% | viability, T/C [13] 111% | viability, T/C [14] 118% | viability, T/C [15] 106% | viability, T/C [16] 99.3% | viability, T/C [17] 98.9% | viability, T/C [18] 67.6% | viability, T/C [19] 112% | viability, T/C [20] 99.7% | viability, T/C [21] 98.2% | viability, T/C [22] 92.3% | viability, T/C [23] 88% | viability, T/C [24] 68.1% | viability, T/C [25] 114% | viability, T/C [26] 103% | viability, T/C [27] 89.1% | viability, T/C [28] 114% | viability, T/C [29] 90.3% | viability, T/C [30] 65.2% | viability, T/C [31] 103% | viability, T/C [32] 98% | viability, T/C [33] 93.4% | viability, T/C [34] 87% | viability, T/C [35] 80.9% | viability, T/C [36] 69.3%
